Results on six molecules are retold here after patent US20240174637A1, “DEGRADERS OF GRK2 AND USES THEREOF” (Sonata Therapeutics, Inc., priority 2021, published 2024).

Assay [1] deals with T1, GRK2 (Homo sapiens, UniProt P25098).
T1 sequence (P25098 1-689): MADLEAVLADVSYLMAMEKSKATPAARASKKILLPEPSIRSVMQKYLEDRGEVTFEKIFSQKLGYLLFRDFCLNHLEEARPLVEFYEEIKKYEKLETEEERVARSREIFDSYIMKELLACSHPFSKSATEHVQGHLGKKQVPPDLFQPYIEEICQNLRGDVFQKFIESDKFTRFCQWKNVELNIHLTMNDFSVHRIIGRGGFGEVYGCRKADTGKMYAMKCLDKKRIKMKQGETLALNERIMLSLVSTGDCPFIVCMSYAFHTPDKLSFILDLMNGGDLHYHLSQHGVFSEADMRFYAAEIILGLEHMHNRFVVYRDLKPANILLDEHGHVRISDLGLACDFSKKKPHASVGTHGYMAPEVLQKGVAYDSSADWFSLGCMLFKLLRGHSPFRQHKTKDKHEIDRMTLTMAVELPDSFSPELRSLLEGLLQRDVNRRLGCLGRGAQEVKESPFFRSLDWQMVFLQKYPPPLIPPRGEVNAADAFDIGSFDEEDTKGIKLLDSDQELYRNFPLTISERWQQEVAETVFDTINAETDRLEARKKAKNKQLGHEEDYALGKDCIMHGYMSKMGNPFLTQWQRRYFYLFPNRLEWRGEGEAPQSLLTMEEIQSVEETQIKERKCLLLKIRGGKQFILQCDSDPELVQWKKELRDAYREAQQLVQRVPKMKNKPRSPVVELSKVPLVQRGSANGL
The assay is described as follows: GRK2 Degradation Assay and Western Blot in PAXF1657 cells. In kind it is cell-based. Details: endogenous in cells; host or cells: PAXF1657. The conditions noted are these: for inhibition at 0.3 µM: read-out: % GRK2 degradation at 0.3 uM in PAXF1657 EV (24 hrs); for inhibition at 1 µM: read-out: % GRK2 degradation at 1 uM in PAXF1657 EV (24 hrs); for inhibition at 3 µM: read-out: % GRK2 degradation at 3 uM in PAXF1657 EV (24 hrs). In short, it runs like this:
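PAXF1657 cells grown to 70% confluency, then treated with compounds at 0–10 μM for 6 to 24 h at 37 °C. Lysates in PBS with 1% NP40 run on SDS-PAGE. GRK2 protein detected by western blot with β-actin as loading reference, using ECL chemiluminescence.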
Background: A western blot detects proteins with antibodies after separation by electrophoresis.

Another assay relates to PAXF1657 EV. The assay is described as follows: 7-day cellular proliferation assay (CellTiter-Glo), PAXF1657 EV. The conditions noted are these: 168 h, 7-day, read-out: 7-day proliferation assay: IC50 GeoMean (uM) [Cell Line: PAXF1657 EV]. In kind it is cell-based. The gist of the method:
(§1)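 PAXF1657 isogenic lines (GRK2-overexpressing vs empty vector; CRISPR GRK2 knockout vs non-targeting control clones) seeded 500 cells/well in RPMI1640/10% FBS and treated next day with 10-point dilutions, 30 μM-0.0002 μM final, 0.3% DMSO. Media with compound refreshed after 3 days; viability read by CellTiter-Glo luminescence at day 7.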
A general note: Cellular ATP, detected with luciferase, serves as a proxy for viable cell number.

Another assay relates to PAXF1657 KO Clone #4. The assay is described as follows: 7-day cellular proliferation assay (CellTiter-Glo), PAXF1657 KO Clone #4. Conditions: 168 h, 7-day, read-out: 7-day proliferation assay: IC50 GeoMean (uM) [Cell Line: PAXF1657 KO Clone #4]. Type of assay: cell-based. The gist of the method:
as §1

The target of assay [2] is T1, GRK2. Put plainly: ADPGlo GRK2 Inhibition Assay (Example 2). In kind it is biochemical. The conditions noted are these: ADP-Glo, 10 μM ATP; read-out: ADP Glo Enzymatic GRK2 Assay: IC50 (nM) (Example 2). How it is done:
Assay: GRK2 (7.5 nM) was incubated with ATP (10 μM) and GRKtide (0.3 mg/mL) in 5 μL of assay buffer (see above) for 180 min at room temperature. HTS was performed using 1 μM compound. Compounds were dissolved in 100% DMSO, serially diluted tree-fold from 100 μM concentration to 46 nM and transferred (50 nL) into assay ready plate.
Materials: GRK2 was purchased from SignalChem (Cat #A14-10G, Lot #X645-3). Substrate GRKtide was from SignalChem (Cat #G46-58, Lot #R339-6). ADP-Glo Kinase Assay from Promega (Cat #V9102). Assay buffer consisted of 25 mM HEPES (pH7.5), 10 mM MgCl2, 0.01% Tween-20, 1 mM DDT. 384-well white plates were from Greiner […] (Item #784075).
HTS protocol: Take 384 well plate with 50 nL of compound in columns 3-22/DMSO solution 1-2,23-24. Add 2.5 μL assay buffer to columns 23 and 24 using Thermo Scientific Multidrop Combi Dispenser. Add 2.5 μL of 2× enzyme solution (15 nM in 1× assay buffer) using Thermo Scientific Multidrop Combi Reagent Dispenser to all columns except of 23 and 24. Incubate for 15 minutes. Fill plate with 2.5 μL of 2× substrate mix (20 μM ATP and 0.6 mg/mL GRKtide in 1× assay buffer) using Thermo Scientific Multidrop Combi Reagent Dispenser. Spin 15 seconds at 1000 rpm and incubate for 180 min at room temperature. Add 5 μL ADP-Glo reagent to all the wells. Spin 15 seconds at 1000 rpm and incubate for 40 min at room temperature. Add 10 μL Detection solution to all the wells. Incubate for 30 min at room temperature. Read plate in Luminescent mode on BMG PheraStar FSX (gain=3600).
Data Analysis: Data were analyzed in GraphPad Prism 8.0.2. Each HTS plate contains compounds in columns 3-22, controls (enzyme, no compound) in columns 1 and 2, and blanks (no enzyme) in columns 23 and 24. HTS percent inhibition was calculated for each compound from the signal in luminescence units and the mean of the plate controls and the mean of the plate blanks using the following equation: % Inhibition=100*(1−((signal−blank mean)/(control mean−blank mean))). At the final stage of data processing, we obtain dose-response curves, tables and SDF-files with the results of screening for each substance.
On the technique in general: In ADP-Glo the light output rises with the ADP produced.

Assay [3] has as its target T1, GRK2. Put plainly: Second ADPGlo GRK2 Inhibition Assay (Example 3). Type of assay: biochemical. The conditions noted are these: ADP-Glo, 20 μM ATP; read-out: Second ADPGlo Enzymatic GRK2 Assay: IC50 (nM) (Example 3). As for the experimental part: Assay: GRK2 (2 nM) was incubated with ATP (20 μM) and GRKtide (1.2 mg/mL) in 11 μL of assay buffer (see above) for 180 min at room temperature. Compounds were dissolved in 100% DMSO, serially diluted 3.16-fold from 100 μM with 10 concentration points and transferred as 100× into assay plate (final compounds concentration in the reaction plate from 1 μM).
Materials: GRK2 was purchased from SignalChem (Cat #A14-10G, Lot #X645-3). Substrate GRKtide was from SignalChem (Cat #G46-58, Lot #R339-6). ADP-Glo Kinase Assay from Promega (Cat #V9102). Assay buffer consisted of 20 mM HEPES (pH7.5), 20 mM MgCl2, 0.01% Tween-20, 0.05 mM DDT. 384-well white plates were from Corning (Cat #4513).
HTS protocol: Add 5.5 μL of 2× substrate-enzyme mix into all columns except of 1-2 and 24 of reaction plate. Spin 15 seconds at 200 g. Transfer 1 ul of compounds from the plate with serial dilutions (384 well plate with 22 uL of compound in columns 3-22/DMSO solution 1-2,23-24) to Dilution plate (384 well plate with 49 uL of buffer with 2×40 μM ATP). After mixing transfer 5.5 ul from Dilution plate to Reaction plate (to 5.5 μL of 2× substrate-enzyme mix). Spin 15 seconds at 200 g and incubate for 180 min at room temperature with sealing. Add 3 μL ADP-Glo reagent to all the wells. Spin 15 seconds at 200 g and incubate for 40 min at room temperature. Add 6 μL Detection solution to all the wells. Incubate for 30 min at room temperature. Read plate using ClarioStar Plus (BMG).
Data Analysis: Data were analyzed in GraphPad Prism 5.0.2. Each HTS plate contains compounds in columns 3-22, controls (enzyme, no compound) in column 23, and blanks (no enzyme) in columns 2. HTS percent inhibition was calculated for each compound from the signal in luminescence units and the mean of the plate controls and the mean of the plate blanks using the following equation: % Inhibition=100*(1-(signal-blank mean)/(control mean-blank mean)).

Bounds are passed on as bounds.

For `Cn1c(CNc2cccc(C(=O)NCc3cccc(OCCCCCCOCCOCC(=O)Nc4cccc5c4CN(C4CCC(=O)NC4=O)C5=O)c3)c2)nnc1-c1ccncn1` (stereo not shown) [Compound D72], on GRK2 [1] (PAXF1657 EV, 24 hrs), the inhibition at 0.3 µM came to 36%, the inhibition at 1 µM was determined as 59% and the inhibition at 3 µM amounted to 64%. Moreover, the IC50 in the assay on PAXF1657 EV was in the range of 1 to 10 µM. For the same molecule, the IC50 in the assay on PAXF1657 KO Clone #4 lay within 1 to 10 µM. In addition, the IC50 at GRK2 [2] was < 100 nM.
As to `Cn1c(CNc2cccc(C(=O)NCc3cccc(OCCCCCCCn4cc(CCCCC(=O)Nc5cccc6c5CN(C5CCC(=O)NC5=O)C6=O)nn4)c3)c2)nnc1-c1ccncn1` (stereo not shown) [Compound D60], on GRK2 [1] (PAXF1657 EV, 24 hrs), the inhibition at 0.3 µM was -3%, the inhibition at 1 µM is 13% and the inhibition at 3 µM is 69%. The IC50 in the assay on PAXF1657 EV is > 10 µM. Also, the IC50 at GRK2 [3] is < 100 nM. Further, the IC50 in the assay with PAXF1657 KO Clone #4 is > 10 µM.
As to `Cc1ncsc1-c1ccc(CNC(=O)[C@@H]2C[C@@H](O)CN2C(=O)[C@@H](NC(=O)CCCCc2cn(CCCCCCCOc3cccc(CNC(=O)c4cccc(NCc5nnc(-c6ccncn6)n5C)c4)c3)nn2)C(C)(C)C)cc1` [Compound D82], at GRK2 [1] (PAXF1657 EV, 24 hrs), the inhibition at 0.3 µM is -1%, the inhibition at 1 µM worked out at 28% and the inhibition at 3 µM was determined as 57%. In the assay with PAXF1657 EV, the IC50 was < 1 µM. In addition, the IC50 at GRK2 [3] was < 100 nM. Also, the IC50 in the assay with PAXF1657 KO Clone #4 was > 10 µM.
Regarding `Cn1c(CNc2cccc(C(=O)NCc3cccc(OCCCCCCOCCOCCOCCOCC(=O)Nc4cccc5c4CN(C4CCC(=O)NC4=O)C5=O)c3)c2)nnc1-c1ccncn1` (stereo not shown) [Compound D71], the IC50 at GRK2 [2] is < 100 nM.
Take `Cc1ncsc1-c1ccc(CNC(=O)[C@@H]2C[C@@H](O)CN2C(=O)[C@@H](NC(=O)CCCCCOCCOCCOCCCCCCOc2cccc(CNC(=O)c3cccc(NCc4nnc(-c5ccncn5)n4C)c3)c2)C(C)(C)C)cc1` [Compound D99]: the inhibition at 1 µM on GRK2 [1] (PAXF1657 EV, 24 hrs) amounted to 44%. On GRK2 [1] (PAXF1657 EV, 24 hrs), the inhibition at 3 µM worked out at 13%. For the same molecule, the IC50 with PAXF1657 EV is < 1 µM; on GRK2 [3], < 100 nM; in the assay on PAXF1657 KO Clone #4 it was 1 to 10 µM.
As for `Cn1c(CNc2cccc(C(=O)NCc3cccc(OCCCCCCOCCOCCOCCCCCC(=O)Nc4cccc5c4CN(C4CCC(=O)NC4=O)C5)c3)c2)nnc1-c1ccncn1` (stereo not shown) [Compound D73], on GRK2 [1] (0.03 uM, PAXF1657 EV, 24 hrs), the “% GRK2 degradation at 0.03 uM in PAXF1657 EV (24 hrs)” value was 15%. The “% GRK2 degradation at 0.1 uM in PAXF1657 EV (24 hrs)” value at GRK2 [1] (0.1 uM, PAXF1657 EV, 24 hrs) is given as 28%. Besides, at GRK2 [1] (PAXF1657 EV, 24 hrs), the inhibition at 0.3 µM amounted to 48%, the inhibition at 1 µM turned out to be 67% and the inhibition at 3 µM amounted to 76%. Moreover, the “% GRK2 degradation at 10 uM in PAXF1657 EV (24 hrs)” value on GRK2 [1] (10 uM, PAXF1657 EV, 24 hrs) is 76%. The “GRK2 degradation, dose dependence (FIGS. 1A-1D)” value at GRK2 [1] (24-hour treatment in PAXF1657 cells) is given as “Dose dependent”. Besides, the IC50 in the assay on PAXF1657 EV lay within 1 to 10 µM. In addition, the IC50 on GRK2 [3] is < 100 nM. In addition, in the assay on PAXF1657 KO Clone #4, the IC50 was > 10 µM.
